Source: PubChem BioAssay AID330 (DTP/NCI, 2004)
Values joined by “and” are separate entries in the source; they are usually repeats but may differ in a detail not shown here. Equal values may be shown once. Inconclusive results and toxic doses are left out.

Tested on: P388 leukemia ip, CD2F1 mice, survival T/C
Assay: NCI In Vivo Anticancer Drug Screen. Data for tumor model P388 Leukemia (intraperitoneal) in CD2F1 (CDF1) mice
Details: endpoint: median survival time, higher = longer survival
Outline: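 Mice carrying the transplanted tumor received test compound or vehicle. Survival was recorded in each group, and the value is the treated-group measurement divided by that of the vehicle-treated control group.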

[1] = dose: 50.0 mg/kg/injection, schedule: Q01DX005 (ip), vehicle: Klucel (hydroxypropylcellulose) (HPC)
[2] = dose: 100.0 mg/kg/injection, schedule: Q01DX005 (ip), vehicle: Klucel (hydroxypropylcellulose) (HPC)
[3] = dose: 200.0 mg/kg/injection, schedule: Q01DX005 (ip), vehicle: Klucel (hydroxypropylcellulose) (HPC)
[4] = dose: 50.0 mg/kg/injection, schedule: Q01DX009 (ip), vehicle: saline with Tween-80
[5] = dose: 100.0 mg/kg/injection, schedule: Q01DX009 (ip), vehicle: saline with Tween-80
[6] = dose: 25.0 mg/kg/injection, schedule: Q01DX009 (ip), vehicle: saline
[7] = dose: 50.0 mg/kg/injection, schedule: Q01DX009 (ip), vehicle: Klucel (hydroxypropylcellulose) (HPC)
[8] = dose: 100.0 mg/kg/injection, schedule: Q01DX009 (ip), vehicle: Klucel (hydroxypropylcellulose) (HPC)
[9] = dose: 200.0 mg/kg/injection, schedule: Q01DX009 (ip), vehicle: Klucel (hydroxypropylcellulose) (HPC)
[10] = dose: 6.25 mg/kg/injection, schedule: Q01DX009 (ip), vehicle: Klucel (hydroxypropylcellulose) (HPC)
[11] = dose: 12.5 mg/kg/injection, schedule: Q01DX009 (ip), vehicle: Klucel (hydroxypropylcellulose) (HPC)
[12] = dose: 25.0 mg/kg/injection, schedule: Q01DX009 (ip), vehicle: saline with Tween-80
[13] = dose: 12.5 mg/kg/injection, schedule: Q01DX009 (ip), vehicle: saline with Tween-80

CCCCCCOC(=O)c1ccccc1NC(=O)NN1CCCCCC1
T/C [1]: 100 % of control | T/C [2]: 102 % of control | T/C [3]: 100 % of control

C=C1C(=O)O[C@H]2C[C@H]3O[C@H]3[C@@H]12
T/C (dose: 1.56 mg/kg/injection, schedule: Q01DX009 (ip), vehicle: water): 100 % of control | T/C (dose: 3.13 mg/kg/injection, schedule: Q01DX009 (ip), vehicle: water): 99 % of control | T/C (dose: 6.25 mg/kg/injection, schedule: Q01DX009 (ip), vehicle: water): 98 % of control | T/C (dose: 12.5 mg/kg/injection, schedule: Q01DX009 (ip), vehicle: water): 101 % of control | T/C (dose: 25.0 mg/kg/injection, schedule: Q01DX009 (ip), vehicle: water): 107 % of control

Nc1c(S)cc(O)c2c1C(=O)c1ccccc1C2=O
T/C [1]: 99 % of control | T/C [2]: 103 % of control | T/C [3]: 107 % of control

Oc1ccc(N=Cc2ccc(OCc3ccccc3)cc2)cc1
T/C [4]: 97 % of control | T/C [5]: 93 % of control | T/C (dose: 200.0 mg/kg/injection, schedule: Q01DX009 (ip), vehicle: saline with Tween-80): 93 % of control

COC(=O)c1nc(=S)[nH]c(C(=O)OC)c1C(=O)c1c(C)[nH]c2ccccc12
T/C (dose: 60.0 mg/kg/injection, schedule: Q01DX005 (ip), vehicle: Klucel (hydroxypropylcellulose) (HPC)): 98 % of control | T/C (dose: 120.0 mg/kg/injection, schedule: Q01DX005 (ip), vehicle: Klucel (hydroxypropylcellulose) (HPC)): 96 % of control | T/C (dose: 240.0 mg/kg/injection, schedule: Q01DX005 (ip), vehicle: Klucel (hydroxypropylcellulose) (HPC)): 95 % of control

Cc1cc(C(O)(C(F)(F)F)C(F)(F)F)c(N)c(C(O)(C(F)(F)F)C(F)(F)F)c1
T/C [1]: 104 % of control | T/C [2]: 103 % of control

COc1ccc(CCNC(=O)CC2CCN(C)CC2)cc1OC
T/C (dose: 100.0 mg/kg/injection, schedule: Q04DX003 (ip), vehicle: saline with Tween-80): 101 % of control | T/C (dose: 200.0 mg/kg/injection, schedule: Q04DX003 (ip), vehicle: saline with Tween-80): 100 % of control

COC(=O)C1=CN(C(C)=O)C=C(C(=O)OC)C1c1ccccc1
T/C (dose: 50.0 mg/kg/injection, schedule: Q01DX005 (ip), vehicle: saline with Tween-80): 102 % of control | T/C (dose: 100.0 mg/kg/injection, schedule: Q01DX005 (ip), vehicle: saline with Tween-80): 93 % of control | T/C (dose: 200.0 mg/kg/injection, schedule: Q01DX005 (ip), vehicle: saline with Tween-80): 92 % of control

COc1ccc(C(=O)c2cc3c(ccc4ccccc43)oc2=O)cc1
T/C (dose: 6.25 mg/kg/injection, schedule: Q01DX009 (ip), vehicle: saline): 98 % of control | T/C (dose: 12.5 mg/kg/injection, schedule: Q01DX009 (ip), vehicle: saline): 96 % of control | T/C [6]: 90 % of control

NC1CCC2CCCCC2C1 (centres undefined)
T/C (dose: 100.0 mg/kg/injection, schedule: Q01DX001 (ip), vehicle: saline): 100 % of control | T/C (dose: 200.0 mg/kg/injection, schedule: Q01DX001 (ip), vehicle: saline): 104 % of control

C/C(=N\N/C=N/S(=O)(=O)c1ccccc1)c1ccccc1
T/C [1]: 88 % of control | T/C [2]: 89 % of control | T/C [3]: 89 % of control

Cc1ccc(CCN(S(=O)(=O)c2ccc(C)cc2)S(=O)(=O)c2ccc(C)cc2)cc1
T/C [7]: 92 % of control | T/C [8]: 96 % of control | T/C [9]: 86 % of control

C=C1C(=O)OC2/C=C(\CO)C(OC(C)=O)CC(O)/C(C)=C/C(OC(=O)C(C)CC)C12 (centres undefined)
T/C [10]: 111 % of control | T/C [11]: 119 % of control | T/C [8]: 121 % of control

O=C(CN1CC1)NCCCCCCCCNC(=O)CN1CC1
T/C (dose: 25.0 mg/kg/injection, schedule: Q04DX003 (ip), vehicle: saline with Tween-80): 159 % of control | T/C (dose: 33.0 mg/kg/injection, schedule: Q04DX003 (ip), vehicle: saline with Tween-80): 200 % of control | T/C (dose: 50.0 mg/kg/injection, schedule: Q04DX003 (ip), vehicle: saline with Tween-80): 181 % of control and 209 % of control

Cc1ccc(NC(=O)NC(=O)CCl)cc1
T/C [10]: 105 % of control | T/C [11]: 99 % of control | T/C (dose: 25.0 mg/kg/injection, schedule: Q01DX009 (ip), vehicle: Klucel (hydroxypropylcellulose) (HPC)): 101 % of control and 105 % of control | T/C [12]: 92 % of control | T/C [7]: 104 % of control and 108 % of control and 113 % of control | T/C [8]: 123 % of control | T/C [5]: 106 % of control

CCCCCCCCCC[n+]1cccc(C(N)=O)c1
T/C (dose: 5.0 mg/kg/injection, schedule: Q01DX009 (ip), vehicle: saline with Tween-80): 100 % of control | T/C (dose: 10.0 mg/kg/injection, schedule: Q01DX009 (ip), vehicle: saline with Tween-80): 109 % of control | T/C (dose: 20.0 mg/kg/injection, schedule: Q01DX009 (ip), vehicle: saline with Tween-80): 113 % of control

CCC[CH2][Sn]([CH2]CCC)([S]CC(=O)OC)[S]CC(=O)OC
T/C (dose: 1.56 mg/kg/injection, schedule: Q01DX001 (ip), vehicle: Klucel (hydroxypropylcellulose) (HPC)): 110 % of control | T/C (dose: 3.12 mg/kg/injection, schedule: Q01DX001 (ip), vehicle: Klucel (hydroxypropylcellulose) (HPC)): 111 % of control | T/C (dose: 6.25 mg/kg/injection, schedule: Q01DX001 (ip), vehicle: Klucel (hydroxypropylcellulose) (HPC)): 96 % of control | T/C (dose: 12.5 mg/kg/injection, schedule: Q01DX001 (ip), vehicle: Klucel (hydroxypropylcellulose) (HPC)): 106 % of control | T/C (dose: 25.0 mg/kg/injection, schedule: Q01DX001 (ip), vehicle: Klucel (hydroxypropylcellulose) (HPC)): 115 % of control

CN[C@H]1CC[C@]23C[C@]24CC[C@]2(C)[C@@H]([C@H](C)N(C)C)CC[C@@]2(C)[C@@H]4CC[C@H]3C1(C)C
T/C (dose: 3.12 mg/kg/injection, schedule: Q01DX009 (ip), vehicle: saline with Tween-80): 112 % of control | T/C (dose: 6.25 mg/kg/injection, schedule: Q01DX009 (ip), vehicle: saline with Tween-80): 100 % of control | T/C [13]: 102 % of control | T/C [12]: 102 % of control | T/C [4]: 118 % of control

COc1cc2c(cc1OC)C(O)C1CCCNC1C2 (centres undefined)
T/C (dose: 25.0 mg/kg/injection, schedule: Q04DX002 (ip), vehicle: saline): 98 % of control | T/C (dose: 50.0 mg/kg/injection, schedule: Q04DX002 (ip), vehicle: saline): 103 % of control | T/C (dose: 100.0 mg/kg/injection, schedule: Q04DX002 (ip), vehicle: saline): 102 % of control | T/C (dose: 200.0 mg/kg/injection, schedule: Q04DX002 (ip), vehicle: saline): 102 % of control | T/C (dose: 400.0 mg/kg/injection, schedule: Q04DX002 (ip), vehicle: saline): 101 % of control

Clc1ccc(CSSC(Cl)(Cl)Cl)cc1
T/C (dose: 50.0 mg/kg/injection, schedule: Q01DX005 (ip), vehicle: acetone): 102 % of control | T/C (dose: 100.0 mg/kg/injection, schedule: Q01DX005 (ip), vehicle: acetone): 105 % of control | T/C (dose: 200.0 mg/kg/injection, schedule: Q01DX005 (ip), vehicle: acetone): 107 % of control

O=C(NCO)NS(=O)(=O)c1ccc(N2C(=O)c3ccccc3C2=O)cc1
T/C [7]: 103 % of control | T/C [8]: 107 % of control | T/C [9]: 112 % of control

S=c1[nH]ccn1-c1c(Cl)cccc1Cl
T/C [7]: 99 % of control | T/C [8]: 100 % of control

O=C(CC(=O)c1ccccc1)C(=O)CC(=O)c1ccccc1
T/C (dose: 100.0 mg/kg/injection, schedule: Q04DX002 (ip), vehicle: saline with Tween-80): 103 % of control | T/C (dose: 200.0 mg/kg/injection, schedule: Q04DX002 (ip), vehicle: saline with Tween-80): 99 % of control | T/C (dose: 400.0 mg/kg/injection, schedule: Q04DX002 (ip), vehicle: saline with Tween-80): 99 % of control

O=C(O)c1ccc(SSc2ccc(C(=O)O)cc2)cc1
T/C [13]: 97 % of control | T/C [12]: 106 % of control | T/C [4]: 103 % of control | T/C [5]: 111 % of control

CCOC1CC(C)(O)C(C(=O)OC)c2cc3c(c(O)c21)C(=O)c1c(O)cc2c(c1C3=O)OC1OC2(C)C(O)C(N(C)C)C1O (centres undefined)
T/C (dose: 3.16 mg/kg/injection, schedule: Q01DX009 (ip), vehicle: other): 151 % of control | T/C (dose: 6.25 mg/kg/injection, schedule: Q01DX009 (ip), vehicle: other): 161 % of control | T/C (dose: 12.5 mg/kg/injection, schedule: Q01DX009 (ip), vehicle: other): 171 % of control

O=C(O)CCCCCCCCC(=O)CCl
T/C [6]: 99 % of control | T/C (dose: 50.0 mg/kg/injection, schedule: Q01DX009 (ip), vehicle: saline): 115 % of control

C[N+]1(C)CCC(=O)CC1
T/C [12]: 109 % of control | T/C [4]: 100 % of control | T/C [5]: 104 % of control
